From patent US5354862A, “Preparation and the use of halopropargylated cyclic quaternary ammonium compounds as antimicrobial agents” (Rohm and Haas Company, priority 1993, dated 1994)
Read-outs that look alike come from different tables or passages of the source.

How the values were obtained:
Test in all cases: Broth two-fold serial dilution MIC test
[1] = test system: Escherichia coli; format: cell-based, Escherichia coli (ATCC 11229); details: Table 2, Ecol
Text: (§1) A minimum inhibitory concentration (MIC) value is obtained using a broth, two-fold serial dilution test performed as follows: A stock solution or dispersion of the test compound, typically at a concentration of 1%, is made in a 5:3:2 solvent solution of acetone. methanol, and water. A volume of the stock solution is dispensed into culture media to give an initial starting test concentration of 500 ppm compound.
(§2) When the test is ready to be done, each vessel in the dilution series, except the first vessel, contains an equal volume of compound free broth. The first vessel contains twice the volume of broth with the starting concentration of test compound. One half of the broth from the first vessel is transferred to the second vessel- After being mixed, one half the resulting volume is removed from the second vessel and transferred to the third vessel. The entire cycle is repeated sufficiently to give a series of concentrations amounting to 500, 250, 125, 63, 31, 16, 8, and 4, 2, 1, 0.5, 0.25 ppm respectively.
(§3) Each vessel is then inoculated with a cell suspension of the appropriate test organism. Bacteria are grown in broth, fungi on agar slants for a time and at a temperature appropriate to the species being tested, and algae are a mixture of green algae and blue-green bacteria grown in a nutrient media. At the end of the growth period, in the case of bacteria, the broth is vortexed to disperse the cells.
(§4) In the case of fungi, the spores are harvested by pipetting water onto the slant and dislodging the spores with a sterile loop. The cell/spore suspension is standardized by controlling incubation time, temperature, and the volume of the diluent. The suspension is then used to inoculate the vessels containing the broth compound.
(§5) The vessels are then incubated at the appropriate temperature. After the incubation, the vessels are examined for growth/no growth. The minimum inhibitory concentration (MIC) is defined as the lowest concentration of compound that results in complete inhibition of growth of the test organism.

[2] = test system: Aspergillus niger; format: cell-based, Aspergillus niger (ATCC 6275); details: Table 2, Anig, TSB media
Text: as §1, §2, §3, §4, §5
4. Aspergillus niger 6275 Anig

[3] = test system: Staphylococcus aureus; format: cell-based, Staphylococcus aureus (ATCC 6538); details: Table 2, Saur
Text: as §1, §2, §3, §4, §5
2. Staphylococcus aureus

[4] = test system: Pseudomonas aeruginosa; format: cell-based, Pseudomonas aeruginosa (ATCC 15442); details: Table 2, Psae
Text: as §1, §2, §3, §4, §5
1. Pseudomonas aeruginosa

[5] = Escherichia coli, M9G media, read-out: MIC
[6] = Escherichia coli, TSB media, read-out: MIC
[7] = Aspergillus niger, read-out: MIC
[8] = Staphylococcus aureus, M9G media, read-out: MIC
[9] = Staphylococcus aureus, TSB media, read-out: MIC
[10] = Pseudomonas aeruginosa, M9G media, read-out: MIC
[11] = Pseudomonas aeruginosa, TSB media, read-out: MIC

Structure (SMILES) | MIC [1, 5] [µg/mL] | MIC [1, 6] [µg/mL] | MIC [2, 7] [µg/mL] | MIC [3, 8] [µg/mL] | MIC [3, 9] [µg/mL] | MIC [4, 10] [µg/mL] | MIC [4, 11] [µg/mL] | MIC ([1]; M9G media) [ppm] | MIC ([1]; TSB media) [ppm] | MIC [2] [ppm] | MIC ([3]; M9G media) [ppm] | MIC ([3]; TSB media) [ppm] | MIC ([4]; M9G media) [ppm] | MIC ([4]; TSB media) [ppm]
CCCCCCCCCCOC(=O)C[N+]1(CC#CI)CCCC1 [Compound 65, 1-(decyioxycarbonyl)methyl-1-(3-iodopropargyl)-pyrrolidinium 4methylbenzenesulfonate] | 2 | 4 | 16 | 2 | 1 | 64 | 125 | – | – | – | – | – | – | –
CCOC(=O)CC[N+]1(CC#CI)CCCCC1 [Compound 22, 1-(2-ethoxycarbonylethyl)-1-(3-iodopropargyl)-piperidinium 4-methylbenzenesulfonate] | – | > 250 | 16 | > 250 | > 250 | > 250 | > 250 | – | – | – | – | – | – | –
CCCCCCCCCCCCCCCC[N+]1(CC#CI)CC(C)OC(C)C1 (stereo not shown) [Compound 47, 4-hexadecyl-4-(3-iodopropargyl)-2,6-dimethylmorpholinium benzenesulfonate] | – | – | – | – | – | – | – | 2 | 2 | 0.5 | < 0.25 | < 0.25 | 8 | 8
CCCCCCCCCCCC[N+]1(CC#CI)CCCC1 [Compound 37, 1-dodecyl-1-(3-iodopropargyl)-pyrrolidinium methanesulfonate] | – | – | – | – | – | – | – | 2 | 16 | 0.25 | 0.5 | 0.5 | 63 | 125
CCCCCCCCCCCC[N+]1(CC#CI)CCCC1 [Compound 13, 1-dodecyl-1-(3-iodopropargyl)-pyrrolidinium 4-methylbenzenesulfonate] | – | – | – | – | – | 32 | – | 32 | 32 | 16 | 1 | 16 | – | 250
CCCCCCCCCCOC(=O)CC[N+]1(CC#CI)CCCC1 [Compound 98, l-[2-(decyloxycarbonyl)]ethyl-1-(3-iodopropargyl)-pyrrolidinium methanesulfonte] | – | – | – | – | – | – | – | 16 | 32 | 16 | 8 | 32 | 500 | 500
CCCCCCCCCC[N+]1(CC#CI)CCCC1 [Compound 78, 1-decyl-1-(3-iodopropargyl)-pyrrolidinium bromide] | – | – | – | – | – | – | – | 2 | 4 | 8 | 0.25 | 2 | 250 | 500
CCCCCCCCCCCCCC[N+]1(CC#CI)CCCCC1 [Compound 85, 1-tetradecyl-1-(3-iodoproparygyl)-piperidinium n-butylsulfonate] | – | – | – | – | – | – | – | 1 | 4 | 4 | 0.25 | 0.25 | 8 | 32
CCCCCCCCCCCCCC[N+]1(CC#CI)CC(C)OC(C)C1 (stereo not shown) [Compound 43, 4-tetradecyl-4-(3-iodopropargyl)-2,6-dimethylmorpholinium 4-methylbenzenesulfonate] | < 0.25 | 0.5 | 1 | < 0.25 | 0.5 | 2 | 4 | – | – | – | – | – | – | –
CCCCCCCCCCCCCCC[N+]1(CC#CI)CCCC1 [Compound 38, 1-pentadecyl-1-(3-iodopropargyl)-pyrrolidinium methanesulfonate] | – | – | – | – | – | – | – | 1 | 8 | 0.5 | < 0.25 | < 0.25 | 32 | 63
CCCCCCCC[N+]1(CC#CI)CCOCC1 [Compound 92, 4-n-octyl-4-(3-iodopropargyl)-morpholinium methanesulfonate] | 32 | 64 | 125 | 8 | 16 | > 500 | > 500 | – | – | – | – | – | – | –
